# Test results reported in patent US20220402950A1, “SUBSTITUTED BENZIMIDAZOLES AS PAD4 INHIBITORS” (BRISTOL-MYERS SQUIBB COMPANY, priority 2018, published 2022).
# Target: human PAD4 (hPAD4) (Homo sapiens, UniProt Q9UM07)
# Experiment: RFMS Human PAD4 Functional Assay
# Type: biochemical
# Conditions: hPAD4 RFMS IC50, human PAD4, rapid-fire mass spectrum (RFMS) assay; 5 nM hPAD4, 250 μM BAEE
# Description: RFMS Human PAD4 Functional Assay:
# Compounds were solubilized in 100% DMSO to achieve a 10 mM compound concentration. Compound stock solutions were stored at RT. A series of dilutions were prepared in DMSO and mixed 8 times with 20 μL mixing volume. Final top concentration of compound in the assay is 50 μM.
# 0.13 μL of compound solution was added to 13 μL of 10 nM PAD4 in assay buffer. After 30 min 13 μl of 500 μM of BAEE was added in 25 mM hepes, pH 7.5, 5 mM NaCl, 1 mM DTT, 0.2 mg/ml BSA, 0.01% CHAPS, 50 μM Calcium, 5 μM TPEN was added and the reaction incubated for 90 min at 37° C. The enzymatic reaction was quenched by addition of 15 μl of 6.1N TCA, 100% Final Concentration is 20%, 35 μl of 8.5 mM phenyl glyoxal (final concentration 4 mM) is then added and the reaction is incubated for 30 min at 37° C.
# After 30 minutes the plates are spun down to remove all precipitate. The enzyme reaction was quenched with an equal volume of methanol containing internal standard (modified citrulline). Samples were loaded onto the Rapid Fire RF300 system (Agilent) wherein they were first sipped for 1000 ms and then directly loaded to a C18 separations cartridge using a mixture of acetonitrile containing 0.01% formic acid for 3000 ms desalting. The flow rate of the mobile phase was 1.5 ml/min.
# The dwell time for each transition was set at 200 ms, and the ESI voltage was used at 5500 with a source temperature of 400° C. Extracted ion peaks for each transition were integrated using the Rapid Fire Integrator software. Peak area of analyte was normalized with internal standard.).
# human PAD4 (hPAD4), sequence (Q9UM07 whole entry): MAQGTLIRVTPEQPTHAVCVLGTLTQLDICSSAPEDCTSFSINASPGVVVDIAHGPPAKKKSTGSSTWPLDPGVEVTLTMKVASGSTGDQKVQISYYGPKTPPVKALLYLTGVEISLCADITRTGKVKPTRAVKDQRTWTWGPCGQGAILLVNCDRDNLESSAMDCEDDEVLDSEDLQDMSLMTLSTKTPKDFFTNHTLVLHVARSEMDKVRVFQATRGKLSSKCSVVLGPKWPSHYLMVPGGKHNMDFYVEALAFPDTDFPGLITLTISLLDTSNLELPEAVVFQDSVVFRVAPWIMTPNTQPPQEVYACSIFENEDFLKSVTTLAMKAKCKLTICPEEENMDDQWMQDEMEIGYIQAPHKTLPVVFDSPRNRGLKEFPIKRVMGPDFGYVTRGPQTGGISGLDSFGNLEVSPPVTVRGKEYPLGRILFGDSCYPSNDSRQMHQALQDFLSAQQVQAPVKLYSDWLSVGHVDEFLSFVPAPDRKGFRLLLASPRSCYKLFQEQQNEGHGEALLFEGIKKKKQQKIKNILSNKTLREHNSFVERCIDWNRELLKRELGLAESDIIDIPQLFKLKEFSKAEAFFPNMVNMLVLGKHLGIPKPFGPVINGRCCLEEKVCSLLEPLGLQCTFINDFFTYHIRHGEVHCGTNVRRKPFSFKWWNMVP
row,Compound,IC50 [µM]
1,"COc1cc(C(=O)N2C[C@H]3CC[C@@H]2[C@@H]3N)cc2nc(-c3cc4cccc(C5CC(O)C5)c4n3CC3CC3)n(C)c12 (mixture of isomers) [Example 18, cis- and trans-3-(2-{5-[(1R,4R,7R)-7-amino-2-azabicyclo[2.2.1]heptane-2-carbonyl]-7-methoxy-1-methyl-1H-1,3-benzodiazol-2-yl}-1-(cyclopropylmethyl)-1H-indol-7-yl)cyclobutan-1-ol]",0.071
2,"COc1cc(C(=O)N2C[C@H]3CC[C@@H]2[C@@H]3N)cc2nc(-c3cc4cccc(C5CC(C(N)=O)C5)c4n3CC3CC3)n(C)c12 (single isomer, unassigned) [Example 45]",0.025
3,"COc1cc(C(=O)N2C[C@H]3CC[C@@H]2[C@@H]3N)cc2nc(-c3cc4cccc(C5CC(C(N)=O)C5)c4n3CC3CC3)n(C)c12 (single isomer, unassigned) [Example 46]",0.013
4,"COc1cc(C(=O)N2C[C@H]3CC[C@@H]2[C@@H]3N)cc2nc(-c3cc4cccc(C5CC(C(=O)N(C)C)C5)c4n3CC3CC3)n(C)c12 (single isomer, unassigned) [Example 47]",0.013
5,"COc1cc(C(=O)N2C[C@H]3CC[C@@H]2[C@@H]3N)cc2nc(-c3cc4cccc(C5CC(C(=O)N(C)C)C5)c4n3CC3CC3)n(C)c12 (single isomer, unassigned) [Example 48]",0.05
6,"COc1cc(C(=O)N2C[C@H]3CC[C@@H]2[C@@H]3N)cc2nc(-c3cc4cccc(C5CC(C(=O)N6CCCC6)C5)c4n3CC3CC3)n(C)c12 (single isomer, unassigned) [Example 49]",0.034
7,"COc1cc(C(=O)N2C[C@H]3CC[C@@H]2[C@@H]3N)cc2nc(-c3cc4cccc(C5CC(C(=O)N6CCCC6)C5)c4n3CC3CC3)n(C)c12 (single isomer, unassigned) [Example 50]",0.081
8,"COc1cc(C(=O)N2C[C@H]3CC[C@@H]2[C@@H]3N)cc2nc(-c3cc4cccc(C5CC(C(=O)N6CC[C@@H](O)C6)C5)c4n3CC3CC3)n(C)c12 (single isomer, unassigned) [Example 51]",0.048
9,"COc1cc(C(=O)N2C[C@H]3CC[C@@H]2[C@@H]3N)cc2nc(-c3cc4cccc(C5CC(C(=O)N6CC[C@@H](O)C6)C5)c4n3CC3CC3)n(C)c12 (single isomer, unassigned) [Example 52]",0.097
10,"COc1cc(C(=O)N2C[C@H]3CC[C@@H]2[C@@H]3N)cc2nc(-c3cc4cccc(C5CC(C(=O)N6CC[C@H](O)C6)C5)c4n3CC3CC3)n(C)c12 (single isomer, unassigned) [Example 53]",0.051
11,"COc1cc(C(=O)N2C[C@H]3CC[C@@H]2[C@@H]3N)cc2nc(-c3cc4cccc(C5CC(C(=O)N6CC[C@H](O)C6)C5)c4n3CC3CC3)n(C)c12 (single isomer, unassigned) [Example 54]",0.092
12,"COc1cc(C(=O)N2C[C@H]3CC[C@@H]2[C@@H]3N)cc2nc(-c3cc4cccc(C5CC(C(=O)O)C5)c4n3CC3CC3)n(C)c12 (single isomer, unassigned) [Example 55]",0.122
13,"COc1cc(C(=O)N2C[C@H]3CC[C@@H]2[C@@H]3N)cc2nc(-c3cc4cccc(C5CC(C(=O)O)C5)c4n3CC3CC3)n(C)c12 (single isomer, unassigned) [Example 56]",0.17
14,"COc1cc(C(=O)N2C[C@H](N)C[C@@H](F)C2)cc2nc(-c3cc4cccc(C5CC(C(N)=O)C5)c4n3CC3CC3)n(C)c12 (single isomer, unassigned) [Example 113]",0.052
15,"COc1cc(C(=O)N2C[C@H](N)C[C@@H](F)C2)cc2nc(-c3cc4cccc(C5CC(C(N)=O)C5)c4n3CC3CC3)n(C)c12 (single isomer, unassigned) [Example 114]",0.081
16,"COc1cc(C(=O)N2C[C@H](N)C[C@@H](F)C2)cc2nc(-c3cc4cccc(C5CC(C(=O)N6CCCC6)C5)c4n3CC3CC3)n(C)c12 (single isomer, unassigned) [Example 115]",0.064
17,"COc1cc(C(=O)N2C[C@H](N)C[C@@H](F)C2)cc2nc(-c3cc4cccc(C5CC(C(=O)N6CCCC6)C5)c4n3CC3CC3)n(C)c12 (single isomer, unassigned) [Example 116]",0.095
18,"COc1cc(C(=O)N2C[C@H](N)C[C@@H](F)C2)cc2nc(-c3cc4cccc(C5CC(C(=O)N(C)C)C5)c4n3CC3CC3)n(C)c12 (single isomer, unassigned) [Example 117]",0.117
19,"COc1cc(C(=O)N2C[C@H](N)C[C@@H](F)C2)cc2nc(-c3cc4cccc(C5CC(C(=O)N(C)C)C5)c4n3CC3CC3)n(C)c12 (single isomer, unassigned) [Example 118]",0.278
20,"[2H]C([2H])([2H])N(C(=O)C1CC(c2cccc3cc(-c4nc5cc(C(=O)N6C[C@H]7CC[C@@H]6[C@@H]7N)cc(OC)c5n4C)n(CC4CC4)c23)C1)C([2H])([2H])[2H] (single isomer, unassigned; isomer 1) [Example 195]",0.016
21,"COc1cc(C(=O)N2C[C@H]3CC[C@@H]2[C@@H]3N)cc2nc(-c3cc4cccc(C5CC(C(=O)N6CC(F)C6)C5)c4n3CC3CC3)n(C)c12 (single isomer, unassigned; isomer 1) [Example 200]",0.021
22,"COc1cc(C(=O)N2C[C@H]3CC[C@@H]2[C@@H]3N)cc2nc(-c3cc4cccc(C5CC(C(=O)N6CCC6)C5)c4n3CC3CC3)n(C)c12 (single isomer, unassigned; isomer 1) [Example 202]",0.024
23,"[2H]C([2H])([2H])N(C(=O)C1CC(c2cccc3cc(-c4nc5cc(C(=O)N6C[C@H]7CC[C@@H]6[C@@H]7N)cc(OC)c5n4C)n(CC4CC4)c23)C1)C([2H])([2H])[2H] (single isomer, unassigned; isomer 2) [Example 196]",0.053
24,"COc1cc(C(=O)N2C[C@H]3CC[C@@H]2[C@@H]3N)cc2nc(-c3cc4cccc(C5CC(C(=O)N6CC(F)C6)C5)c4n3CC3CC3)n(C)c12 (single isomer, unassigned; isomer 2) [Example 201]",0.057
25,"COc1cc(C(=O)N2C[C@H]3CC[C@@H]2[C@@H]3N)cc2nc(-c3cc4cccc(C5CC(C(=O)N6CCC6)C5)c4n3CC3CC3)n(C)c12 (single isomer, unassigned; isomer 2) [Example 203]",0.046

# Same assay, conditions: human PAD4, rapid-fire mass spectrum (RFMS) assay; 5 nM hPAD4, 250 μM BAEE; read-out: hPAD4 RFMS IC50
row,Compound,IC50 [µM]
1,"1-(2-(5-((1R,4R,7R)- 7-amino-2- azabicyclo[2.2.1]heptane- 2-carbonyl)-7- methoxy-1-methyl- 1H-benzo[d]imidazol- 2-yl)-1- (cyclopropylmethyl)- 1H-indol-7-yl)-N- (pyridin-3- yl)piperidine-1- carboxamide [Example 244]",0.019
2,"CNC(=O)C1CC(c2cccc3cc(-c4nc5cc(C(=O)N6C[C@H]7CC[C@@H]6[C@@H]7N)cc(OC)c5n4C)n(CC4CC4)c23)C1 (single isomer, unassigned) [Example 43]",0.02
3,"CNC(=O)C1CC(c2cccc3cc(-c4nc5cc(C(=O)N6C[C@H]7CC[C@@H]6[C@@H]7N)cc(OC)c5n4C)n(CC4CC4)c23)C1 (single isomer, unassigned) [Example 44]",0.048
4,"COc1cc(C(=O)N2C[C@H]3CC[C@@H]2[C@@H]3N)cc2nc(-c3cc4cccc(C5CC(NC(C)=O)C5)c4n3CC3CC3)n(C)c12 (single isomer, unassigned) [Example 58]",0.075
5,"COc1cc(C(=O)N2C[C@H]3CC[C@@H]2[C@@H]3N)cc2nc(-c3cc4cccc(C5CC(NC(C)=O)C5)c4n3CC3CC3)n(C)c12 (single isomer, unassigned) [Example 59]",0.059
6,"COc1cc(C(=O)N2C[C@H]3CC[C@@H]2[C@@H]3N)cc2nc(-c3cc4cccc(C5CCCC(C(N)=O)C5)c4n3CC3CC3)n(C)c12 (single isomer, unassigned) [Example 85]",0.049
7,"COc1cc(C(=O)N2C[C@H]3CC[C@@H]2[C@@H]3N)cc2nc(-c3cc4cccc(C5CCCC(C(N)=O)C5)c4n3CC3CC3)n(C)c12 (single isomer, unassigned) [Example 86]",0.04
8,"CNC(=O)C1CC(c2cccc3cc(-c4nc5cc(C(=O)N6C[C@H](N)C[C@@H](F)C6)cc(OC)c5n4C)n(CC4CC4)c23)C1 (single isomer, unassigned) [Example 111]",0.076
9,"CNC(=O)C1CC(c2cccc3cc(-c4nc5cc(C(=O)N6C[C@H](N)C[C@@H](F)C6)cc(OC)c5n4C)n(CC4CC4)c23)C1 (single isomer, unassigned) [Example 112]",0.145
10,"COc1cc(C(=O)N2C[C@H]3CC[C@@H]2[C@@H]3N)cc2nc(-c3cc4cccc(-c5cn(CCO)nn5)c4n3CC3CC3)n(C)c12 (stereo in doubt) [Example 108, 2-{4-[2-(5-{7-amino-2-azabicyclo[2.2.1]heptane-2-carbonyl}-7-methoxy-1-methyl-1H-1,3-benzodiazol-2-yl)-1-(cyclopropylmethyl)-1H-indol-7-yl]-1H-1,2,3-triazol-1-yl}ethan-1-ol]",0.073
